Paper PMC12741935 (Alzheimer's & Dementia, 2025)

Assays:
[1] = tested on: 14 DIV hippocampal neurons; test: oAβ-induced dendrite degeneration (MAP2 dendrite length, number, complexity) in cultured hippocampal neurons; format: cell-based, mouse
Method: For in vitro study, all animal procedures were conducted in accordance with the National Institutes of Health Guide for the Care and Use of Laboratory Animals using protocols approved by the institutional animal care and use committee at Stanford University. Timed pregnant C57BL/6 mice (Strain code: 027) were purchased from Charles River Laboratories and delivered on embryonic day 15 (E15), after which E16 embryos were used for primary hippocampal cultures. Primary embryonic mouse hippocampal neuron cultures were plated on poly‐D‐lysine‐coated (10 µg/mL) glass cover slips at 40,000 to 50,000 cells per well in 12‐well plates (Corning Life Sciences). Cells were seeded in plating medium DMEM/F12 supplemented with 10% fetal bovine serum and 1 × penicillin/streptomycin (PS) for 2 hours. Medium was then changed to B‐27 Plus Neuronal Culture System (Invitrogen) supplemented with PS, and 2 mM glutamine.
Immunofluorescence was performed as described previously.[24] Briefly, cultured hippocampal neurons were fixed in 4% formaldehyde for 20 minutes, permeabilized for 6 minutes in 80% ice‐cold methanol, and incubated with primary antibodies at 4°C overnight. Primary antibodies used were rabbit polyclonal MAP2 antibody for labeling dendrites (1:1000, #8707, Cell Signaling) and mouse monoclonal drebrin antibody for labeling dendritic spines (1:300; Cat#ADI‐NBA‐110, Enzo). Secondary antibodies consisted of donkey antirabbit or antimouse conjugated with either FITC or Cy3 (1:400; Jackson ImmunoResearch Laboratories, Inc.).
The cultured hippocampal neurons were imaged using an oil‐based 63x objective on a Leica Stellaris 5 confocal microscope. The cell nucleus was stained with DAPI and imaged at a wavelength of 405 nm (blue channel), the dendrites stained by MAP2 were imaged at 488 nm wavelength (green channel), and the drebrin‐stained spines were imaged at a wavelength of 561 nm (red channel). Z‐stack images of neurons were acquired at a 1024 × 1024 resolution, a zoom factor of 1.0, and a z‐step size of 0.5 µm. The number of steps for every z‐stack picture of a neuron were determined by the size of the neuron in the z‐plane, to ensure that the entirety of a neuron is captured in the picture. The areas to be imaged were selected systematically, starting from the top‐left region to proceeding to the bottom‐right region of a coverslip. For imaging, preference was given to field of views containing isolated neurons versus clustered neurons.
For quantification of drebrin‐positive spines in vitro, the images were analyzed using Imaris 9.3 software. Each image consisted of one major neuron and the “filaments” option in Imaris was applied to manually trace along the dendrites of every neuron, by placing starting and seed points at the beginning and along the length of the dendrites, respectively. The largest dendrite diameter (i.e., Starting Point) was set at 9.00 µm threshold while the thinnest dendrite diameter (i.e., Seed Point) was set at 1.00 µm threshold. After manually tracing the dendrites, the spines along the dendrites were assessed using the automatic “spine detection” function in Imaris. The thinnest spine diameter was set at 0.80 µm threshold while the maximum spine length was set at 5.00 µm. The spine density (number of spines/dendrite length) was then calculated for each neuron. All image acquisition and quantification were performed in a blind manner. For in vitro quantification of dendrite degeneration, Neurolucida (MBF Biosciences) in the manual mode was used to measure the total dendritic length, numbers of dendrites, and dendritic complexity for each neuron.

[2] = Adverse event observation in CD-1 PK study; format: in vivo; details: 10 mg/kg IP, CD-1 mice
Method: The dose volume was 10 mL/kg.

[3] = tested on: kinome; broad panel of proteases, receptors, and bromodomains; details: cited from earlier work

Structure (SMILES): CC(C)NC(=O)N1CC[C@H](NC2=Nc3cc(F)ccc3N(CC(F)F)c3ccc(Cl)cc32)C1 [NVS‐PAK1‐1, (S)‐3‐([2‐chloro‐5‐(2,2‐difluoroethyl)‐8‐fluoro‐5H‐dibenzo[b,e][1,4]diazepin‐11‐yl]amino)‐N‐isopropylpyrrolidine‐1‐carboxamide]
- dendritic complexity ([1]; oAβ 1 µM + 10 nM, 24 h, vs oAβ alone): preservation of complexity
- dendrite number per neuron ([1]; oAβ 1 µM + inhibitor 24 h vs oAβ alone, NVS-PAK1-1 10 nM, AZ 1 nM, G 5 nM): significantly increased dendrite number per neuron
- total dendrite length per neuron ([1]; oAβ 1 µM + inhibitor 24 h vs oAβ alone, NVS-PAK1-1 10 nM, PAK1-C 10 nM, AZ 1 nM, G 5 nM): preserved dendrite length
- adverse events [2]: No adverse events were observed
- cross-reactivity with a broad panel of proteases, receptors, and bromodomains [3]: no significant cross‐reactivity
